Test system: mice
Experiment: SmartCube behavioral signature similarity analysis
Format: in vivo
Conditions: for discrimination rate vs Clozapine (1.0 mg/kg) / discrimination rate vs Olanzapine (0.25 mg/kg) / discrimination rate vs Risperidone (0.06 mg/kg): rate of 0.70 or lower = similar; for SmartCube behavioral signature class: i.p.
Source text: In addition to the reversal of L-687,414 induced hyperlocomotion experiment as described above, some compounds of the present invention have been tested in SmartCube®, an automated system in which the behaviors of compound-treated mice in response to multiple challenges are captured by digital video and analyzed with computer algorithms (Roberds et al., Frontiers in Neuroscience, 2011, Vol. 5, Art. 103, 1-4; Vadim Alexandrov, Dani Brunner, Taleen Hanania, Emer Leahy Eur. J Pharmacol. 2015, 750, 82-99). In this way, the neuro-pharmacological effects of a test compound can be predicted by similarity to major classes of compounds, such as antipsychotics, anxiolytics and antidepressants. […] In addition to the above-mentioned experiments, it has been shown that some of the compounds of formula I are also ENT1 inhibitors (equilibrative nucleoside transporter 1 protein). Therapeutic potential of ENT1 inhibitors is directly or indirectly (via effects of adenosine and/or adenosine receptor modulation) described in the literature for the treatment of the following diseases: autoimmune disease (US 2006/253263), cancer (WO9857643), viral infections and fungal infections (WO2004060902), neurodegenerative disease, Parkinson's disease, Alzheimer's disease, Huntington's disease, amyotrophic lateral sclerosis, psychiatric diseases, substance abuse, ADHD, depression, epilepsy, anxiety, schizophrenia (WO0168105, EP 1252910, EP1612210, WO2009018275), autism spectrum disorders (Susan A. Masinoa, Masahito Kawamura Jr., Jessica L. Cotea, Rebecca B. Williams, David N. Ruskina, Neuropharmacology, 2013, 68, 116-121, pain (WO2009062990, WO2009064497), inflammation, asthma, (US 2007213296, Inflammation research, 2011, 60, 75-76), cardiovascular diseases (Trends in Pharmacological science, 2006, 27, 416-425), sleep disorders, (Psychopharmacology, 1987, 91, 434-439), and ophthalmology and inflammatory retinal diseases (World Journal of Diabetes, vol. 1, 12-18), epilepsy and neurodevelopmental disorders with co-morbid epilepsy (ENT1 Inhibition Attenuates Epileptic Seizure Severity Via Regulation of Glutamatergic Neurotransmission, Xu et al, Neuromol Med (2015) 17:1-11 and Epigenetic changes induced by adenosine augmentation therapy prevent epileptogenesis, Williams-Karneshy et al J Clin Invest. 2013 August; 123(8):3552-63.
As mentioned above, some compounds have been tested in SmartCube®, an analytical system developed by PsychoGenics Inc.
SmartCube® was used to compare the behavioral signature of a test compound to a database of behavioral signatures obtained from a large set of clinically approved reference drugs, grouped per indications. In this way, the neuro-pharmacological effects of a test compound can be predicted by similarity to major classes of compounds, such as antipsychotics, anxiolytics and antidepressants. This approach is ideally suited to screen collections of existing drugs or drug candidates with previously unknown neuropharmacology, which could expedite the development of new and unexpected treatments for psychiatric disorders.
Some compounds of the present invention were injected i.p. at different doses 15 minutes before the test. At least 8 mice were used in each treatment group. Digital videos of the subjects were processed with computer vision algorithms to extract over 2000 dependent measures including frequency and duration of many different behavioral states. The results of the classifications are presented as bar charts for each compound and dose (mg/kg), the Y-axis indicates the relative probability that the test compound will show efficacy in the specific CNS indication.
Compounds of the present invention show similar signatures to those of atypical antipsychotics. An independent analysis was performed on the unclassified data to determine the similarity of the example compounds to active doses of known atypical antipsychotics. […]

Row | SMILES | discrimination rate vs Clozapine (1.0 mg/kg) (example at 3 mg/kg i.p.) | discrimination rate vs Olanzapine (0.25 mg/kg) (example at 3 mg/kg i.p.) | discrimination rate vs Risperidone (0.06 mg/kg) (example at 3 mg/kg i.p.) | SmartCube behavioral signature class | discrimination rate vs Clozapine (1.0 mg/kg) (example at 5 mg/kg i.p.) | discrimination rate vs Olanzapine (0.25 mg/kg) (example at 5 mg/kg i.p.) | discrimination rate vs Risperidone (0.06 mg/kg) (example at 5 mg/kg i.p.)
1 | Cc1ncc(-c2ccc3c(c2)N(c2cncc(N4CCOCC4)n2)C(=O)C3(C)C)cn1 [Example 1, 3,3-Dimethyl-6-(2-methylpyrimidin-5-yl)-1-(6-morpholinopyrazin-2-yl)indolin-2-one] | 0.56 | 0.59 | 0.83 | similarity to atypical antipsychotics | – | – | –
2 | Cc1ncc(-c2ccc3c(c2)N(c2cncc(N4CCCC4=O)n2)C(=O)C3(C)C)cn1 [Example 3, 3,3-Dimethyl-6-(2-methylpyrimidin-5-yl)-1-(6-(2-oxopyrrolidin-1-yl)pyrazin-2-yl)indolin-2-one] | – | – | – | similarity to atypical antipsychotics | 0.62 | 0.66 | 0.68
3 | Cc1ncc(-c2ccc3c(c2)N(c2cncc(N4CCOC4=O)n2)C(=O)C3(C)C)cn1 [Example 15, 3-(6-(3,3-Dimethyl-6-(2-methylpyrimidin-5-yl)-2-oxoindolin-1-yl)pyrazin-2-yl)oxazolidin-2-one] | 0.57 | 0.56 | 0.59 | similarity to atypical antipsychotics | – | – | –
4 | Cc1ncc(-c2ccc3c(c2)N(c2cnc(C)c(N4CCOCC4)n2)C(=O)C3(C)C)cn1 [Example 18, 3,3-Dimethyl-1-(5-methyl-6-morpholinopyrazin-2-yl)-6-(2-methylpyrimidin-5-yl)indolin-2-one] | 0.61 | 0.62 | 0.73 | similarity to atypical antipsychotics | – | – | –
5 | Cc1ncc(-c2ccc3c(c2)N(c2cnc(C)c(N4CCOC4=O)n2)C(=O)C3(C)C)cn1 [Example 20, 3-(6-(3,3-Dimethyl-6-(2-methylpyrimidin-5-yl)-2-oxoindolin-1-yl)-3-methylpyrazin-2-yl)oxazolidin-2-one] | 0.53 | 0.51 | 0.57 | similarity to atypical antipsychotics | – | – | –
6 | Cc1ncc(-c2ccc3c(c2)N(c2ccc4c(n2)N(C)C(=O)C4(C)C)C(=O)C3(C)C)cn1 [Example 39, 6-(3,3-Dimethyl-6-(2-methylpyrimidin-5-yl)-2-oxoindolin-1-yl)-1,3,3-trimethyl-1H-pyrrolo[2,3-b]pyridin-2(3H)-one] | 0.59 | 0.58 | 0.62 | similarity to atypical antipsychotics | – | – | –
7 | Cc1ncc(-c2ccc3c(c2)N(c2cnc(-n4ccnc4C)cn2)C(=O)C3(C)C)cn1 [Example 50, 3,3-Dimethyl-1-(5-(2-methyl-1H-imidazol-1-yl)pyrazin-2-yl)-6-(2-methylpyrimidin-5-yl)indolin-2-one] | 0.52 | 0.51 | 0.63 | similarity to atypical antipsychotics | – | – | –
8 | Cc1ncc(-c2ccc3c(c2)N(c2cnc4c(c2)C(C)(C)C(=O)N4C)C(=O)C3(C)C)cn1 [Example 54, 5-(3,3-Dimethyl-6-(2-methylpyrimidin-5-yl)-2-oxoindolin-1-yl)-1,3,3-trimethyl-1H-pyrrolo[2,3-b]pyridin-2(3H)-one] | 0.54 | 0.51 | 0.57 | similarity to atypical antipsychotics | – | – | –

From US10519140B2, “Indolin-2-one derivatives” (Hoffmann-La Roche Inc., priority 2015, dated 2019)
